{"source": "patent US10324096B2", "about": "“Method of diagnosis, prognostic or treatment of neurodegenerative disease” (CENTRE NATIONAL DE LA RECHERCHE SCIENTIFIQUE, priority 2011, dated 2019)", "key": {"[1]": {"molecular_target": "T1, recombinant human tau protein (441-amino acid isoform), GSK-3 (Homo sapiens, UniProt P10636)", "T1 construct": "purchased Millipore", "T1 sequence (P10636 1-441 isoform P10636-8)": "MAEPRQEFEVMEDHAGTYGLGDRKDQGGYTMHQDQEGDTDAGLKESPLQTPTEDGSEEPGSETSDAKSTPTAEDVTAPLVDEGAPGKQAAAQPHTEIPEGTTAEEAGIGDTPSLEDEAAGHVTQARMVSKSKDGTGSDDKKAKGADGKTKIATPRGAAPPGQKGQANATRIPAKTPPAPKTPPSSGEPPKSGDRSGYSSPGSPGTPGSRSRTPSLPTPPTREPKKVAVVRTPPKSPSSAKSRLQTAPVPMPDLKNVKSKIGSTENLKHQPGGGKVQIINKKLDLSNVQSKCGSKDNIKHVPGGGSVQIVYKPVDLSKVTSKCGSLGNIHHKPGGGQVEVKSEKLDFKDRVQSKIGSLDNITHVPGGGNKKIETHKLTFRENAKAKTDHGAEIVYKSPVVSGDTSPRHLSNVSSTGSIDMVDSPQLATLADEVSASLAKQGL", "assay": "Phosphorylation of recombinant human Tau by GSK-3 in the presence of GAGs, heparin or oligosaccharides", "assay_type": "biochemical", "details": "3-O-sulfated groups in heparin", "experimental": "Phosphorylation by glycogen synthase kinase 3 (GSK-3). Recombinant hTau41 (Millipore) was incubated for 0 to 24 h with […] of recombinant GSK3 (Millipore) in the presence or absence of 50 mg/ml of heparin, Arixtra®, or the heparin hexasaccharide non 3-O-sulfated. Phosphorylation assays (0.050 ml) were carried out at 30° C. and comprised 25 mM Tris-HCl, pH 7.4, 0.1 mM EGTA, 0.1 mM sodium orthovanadate, 2.5 mM PKI (a specific inhibitor of cyclic AMP-dependent protein kinase), protease inhibitors (0.5 mM phenylmethylsulfonyl fluoride, 5 mg/ml aprotinin, 5 mg/ml leupeptin,\nand 0.5 mg/ml pepstatin), tau protein ([…]), 10 mM magnesium acetate, 2 mM [g-^32P]ATP (approximately 100 cpm/nmol) 5 units/ml recombinant reconstituted GSK3. Reactions were initiated with ATP and aliquots were removed at various times ranging from 10 min to 24 h and used for SDS-polyacrylamide gel electrophoresis and immunoblotting. Immunoblots were performed as described (Masato Hasegawa et al., J Bio Chem. (1997) 272 (52), pp. 33118-33124). Alternatively, incorporation of ^32P radioactivity was measured after adsorption to Whatman P-81 paper, as described. Heparin and extracted GAGs were included in the assays at 50 mg/ml."}, "human Tau protein": {"molecular_target": "T2, human Tau protein (Homo sapiens, UniProt P10636)", "T2 construct": "purchased R&D systems", "T2 sequence (P10636 1-441 isoform P10636-8)": "as above", "assay": "Heparin/glycosaminoglycans ELISA competition assay towards human Tau protein (immobilized heparin)", "assay_type": "binding", "details": "FIG. 20", "experimental": "FIGS. 6A and 6B presents the higher capacity of GAGs extracted from hippocampus of AD to bind to human tau protein compared to GAGs from age-matched normal control brains. An ELISA test was used to compare the capacity of the different GAGs to bind to tau protein. The ELISA competing assay used immobilized heparin to bind au in the absence of competing GAGs. For the assay, GAGs (used from 0.1 to 1000 ng/mL) were added to the ELISA together with the tau protein (used at 100 ng/mL). After 1 h incubation at 4° C. plates were washed and remaining tau signal was recorded in the plate. X-axis: % Tau protein binding to total sulfated GAGs. EC50 stands for the GAG concentration necessary to inhibit 50% of the tau protein binding to immobilized heparin. Y-axis: Control (white histogram), AD (black histogram).\nAD and control hippocampus extracted GAGs binding to human Tau protein (R&D systems) was evaluated by an ELISA based competition binding essay (Najjam et al., 1997). ELISA type 96 wells plates were coated with a 2 μg/mL BSA-heparin conjugate solution prepared as previously described (Najjam et al., 1997). After washing with PBS/0.05% Tween-20 (washing solution), wells were saturated with 3% BSA in PBS. […] Peroxidase activity was measured by the tetramethylbenzidine (TMB) detection kit (Pierce). […]"}, "[2]": {"test_system": "zebrafish 3-OST-2 gene / abnormally phosphorylated Tau protein", "assay": "Morpholino knock-down of 3-OST-2 in hTAU-P301L zebrafish: hyperphosphorylated Tau", "assay_type": "in vivo", "experimental": "(§1) Morpholino oligonucleotides (MO) were designed to target the flanking region in the zebrafish 3-OST-2 gene in order to block the translation of the HS3ST2 mRNA: 5′-ATGGCATATAGGT TCCTGTCAAGCC . . . -3′. The morpholino antisense oligonucleotides were designed by Gene Tools (LLC One Summerton Way, Philomath, Oreg., USA). MO HS3ST2-ATG: 5′-[…]-3′.\nThe morpholinos were diluted to three different concentrations in Danieau buffer (58 mM NaCl, 0.7 mM KCl, 0.4 mM MgSO4, 0.6 mM Ca(NO3), 5 mM HEPES pH 7.6) and co-injected with 0.3 mg/mL dextran rhodamine (Molecular Probes, Eugene, Oreg., USA). Transgenic zebrafish embryos at one-cell or two-cell stage were microinjected with approximately 2 nL of 0.5 mM, or 1 mM morpholino solution using a pressure microinjector and a Zeiss stereomicroscope (Zeiss). […]\nThe embryos resulting from crossing between AB line and transgenic zebrafish carrying the P301L mutated Tau gene were screened for the DsRed fluorescent protein at 24 hpf and at 48 hpf the vitellus was removed. […] Protein concentration was measured according to the Bradford method.\nLevels of P-Tau181, characteristic of taupathy associated pathologies, were measured using a combination of monoclonal antibody HT7 (which recognizes amino acids 159-163 in normal Tau and P-Tau) and biotinylated monoclonal antibody AT270 (which recognizes P-Tau containing the phosphorylated threonine 181 residue). […]"}, "[3]": {"test_system": "transgenic hTAU-P301L zebrafish embryos", "assay": "Morpholino injection in transgenic hTAU-P301L zebrafish embryos: survival, anomalies", "assay_type": "in vivo", "details": "morpholino 0.5 mM", "source_text": "Transgenic hTAU-P301L embryos with morpholino-mediated knock-down of the 3-OST-2 coding gene with SEQ ID NO: 5 and the non-injected embryos were screened on the intensity of DsRed fluorescent protein at 24 hpf. With morpholino-mediated knock-down of the 3-OST-2 coding gene in the transgenic hTAU-P301L zebrafish model the level of hyperphosphorylation in Tau protein was investigated. First of all, the obtained zebrafish embryos from the crossing between WT line and transgenic zebrafish carrying the P301L mutation in Tau protein were injected with different morpholino concentrations, respectively 0.3 mM, 0.5 mM and 1 mM. The numbers of living embryos were assessed at 24 hours after injection and survival rates were determined. […] Thus, this concentration was chosen for further analyses (FIG. 12).\nas §1\nThe morpholinos were diluted to three different concentrations in Danieau buffer (58 mM NaCl, 0.7 mM KCl, 0.4 mM MgSO4, 0.6 mM Ca(NO3), 5 mM HEPES pH 7.6) and co-injected with 0.3 mg/mL dextran rhodamine (Molecular Probes, Eugene, Oreg., USA). […]"}, "[4]": {"test_system": "abnormally phosphorylated Tau in wild type differentiated SH-SY5Y cells", "assay": "Suppression of GAG sulfation by chlorate in differentiated SH-SY5Y cells, pTau western blot", "assay_type": "cell-based, human", "details": "FIG. 8A, chlorate 50 mM", "experimental": "Two cell types were used, (i) a wild type SH-SY5Y cells (mutation-independent model) in where abnormal phosphorylation is induced by oxidative stress and (ii) cells stably transfected with complete human tau protein having the mutation hTAU-P301L (mutation dependent model), characteristic of FTDP-17. As a consequence of the Tau mutation cells present high levels of abnormal phosphorylated Tau.\nFor the mutation dependent model cells were cultured as previously described (Schaeffer V et al., J Neurobiol 2006, July; 66(8):868-881). For the mutation independent model, human SH-SY5Y neuroblastoma cells were propagated in Dulbeco's modiced Eagle's medium (Gibco) with 5% fetal bovine serum and penicillin/streptomycin (5% CO2 and 95% air). For both models cells were plated at a density of 10^6 cells/cm^2 on 25 cm^2 dish and incubated under standard conditions for 24 h. […]\nAfter harvesting, cells were and incubated in an ice bath for 5 min in a lysis buffer (50 mM Trus-HCl, 150 mM NaCl, 1% Triton X-100, 1 mM EDTA, 10 mM NaF, pH 8.0) containing 1 mM Na3VO4, and 0.1% protease inhibitor cocktail (Sigam). Lysates were centrifuged and proteins in the supernatants were quantified using the BCA protein assay kit (Pierce). […] Abnormally phosphorylated tau was detected by using anti-tau-pSer199 and anti-tau-pSer396 (Millipore) as described above. […] Results were expressed as a ratio of target protein to actine. […]"}}}
{"molecule": "heparin", "values": [{"measurement": "induction of abnormal Tau phosphorylation in vitro", "setting": "[1]", "value": "able to induce abnormal Tau phosphorylation in vitro"}]}
{"molecule": "fucoidan", "values": [{"measurement": "competition with heparin for binding to human Tau protein (percentage of binding of test compound to hTau)", "setting": "human Tau protein", "value": "able to compete with heparin for the binding to human Tau protein"}]}
{"molecule": "5′-GGCTTGACAGGAACCTATATGCCAT-3′ (all phosphorodiamidate morpholino (PMO)) [MO HS3ST2-ATG]", "values": [{"measurement": "accumulation of abnormally phosphorylated Tau protein in spinal cord", "setting": "[2]; FIG. 13, anti-PHF-tau antibody clone AT8", "value": "diminishes the accumulation of abnormally phosphorylated Tau protein in spinal cord"}, {"measurement": "accumulation of abnormal Tau hyperphosphorylation in vivo", "setting": "[2]; decreasing expression of 3-OST-2 by morpholino", "value": "accumulation of abnormal Tau hyperphosphorylation was markedly decreased"}, {"measurement": "major anomalies or deformities", "setting": "[3]", "value": "did not give major anomalies or deformities"}, {"measurement": "survival rate", "setting": "[3]; 24 hours post-injection", "value": 67, "unit": "%"}]}
{"molecule": "[O-][Cl+2]([O-])O", "note": "[chlorate, sodium chlorate]", "values": [{"measurement": "levels of abnormally phosphorylated Tau epitopes S199, T231, S262, S396 (pTau/β actine)", "setting": "[4]", "value": "Decreased levels of the abnormally phosphorylated Tau epitopes"}]}
